Source: patent publication US6350773B1, “Therapeutic combinations of (S)-2-(benzylamino-methyl)-2,3,8,9,-tetrahydro 7H-1,4-dioxino{2,3-e}indol-8-one and neuroleptics for the treatment or prevention of psychotic disorders” (American Home Products Corporation, priority 1999, dated 2002)

Experiments:
[1] = system: haloperidol-induced catalepsy in rats; experiment: Reversal of haloperidol-induced catalepsy in rats; type: in vivo, Sprague-Dawley rats; conditions: haloperidol 3 mg/kg i.p.
Experimental: FIG. 1 is a schematic representation of the effect of (S)-2-(benzylaminomethyl)-2,3,8,9-tetrahydro-7H-1,4-dioxino[2,3-e]indol-8-one (agent) on haloperidol-induced catalepsy in rats at 60 minutes after drug treatment, the time point of greatest reversal as measured by seconds spent in catelepsy over a dose range of 0.003 to 3 mg/kg s.c. of agent. The data are means±SEM.
Tests for reversal of haloperidol-induced catalepsy in rats were conducted according to a variation of the methods of Svensson et al., Neuropharmacology, 1993, 32:1037-1045. Rats (200-250 g) were transported from the colony room to the experimental room and held there for the duration of the experiment. Haloperidol, dissolved in 0.25% Tween 80®, was administered to all animals at a dose of 3 mg/kg i.p. Sixty minutes later, (S)-2-(benzylamino-methyl)-2,3,8,9-tetrahydro-7H-1,4-dioxino[2,3-e]indol-8-one, also dissolved in 0.25% Tween 80®, was administered s.c. at 4 dose levels to 6 male Sprague-Dawley rats per dose level. A control group, assessed simultaneously with (S)-2-(benzylamino-methyl)-2,3,8,9-tetrahydro-7H-1,4-dioxino[2,3-e]indol-8-one treated groups, received a vehicle (VEH) injection of 0.25% Tween 80® at equal volumes (1 ml/kg). Animals were assessed for catalepsy at 30, 60, 90 and 120 minutes after drug administration by placing the animal's forepaws on a wooden cube (8×8×8 cm). The time that the animal remained with at least one of the forepaws on the cube was measured (maximum=60 sec). The righting reflex was then tested and used to discard sedated subjects. Data were analyzed using a two-factor analysis of variance with one repeated measure. A subsequent least significant difference from control test (p<0.05) was used to determine the minimal effective dose (MED) for reversing haloperidol-induced catalepsy and to determine time of onset. A trend test was then used to determine at which time points (if any) there was a dose-related effect. […]

catalepsy in rats = experiment: Cataleptogenic potential in rats (no haloperidol); type: in vivo; conditions: 0.003 to 3 mg/kg s.c., 60 min post dosing, similar at the other time points
[2] = system: d-amphetamine induced hyperactivity in mice; experiment: Antagonism of d-amphetamine-induced hyperlocomotion in mice; type: in vivo; conditions: d-amphetamine 2.5 mg/kg i.p.
Experimental: FIG. 3 is a schematic representation of the effect of (S)-2-(Benzylamino-methyl)-2,3,8,9-tetrahydro-7H-1,4-dioxino[2,3-e]indol-8-one (agent) to reverse d-amphetamine induced hyperactivity in mice. The data are expressed as a percentage of the activity level (horizontal activity counts) observed in mice treated with d-amphetamine alone for eight doses ranging from 0.0001 to 1 mg/kg s.c. of agent. The data are presented as means±SEM.
The ability to antagonize amphetamine-induced hyperlocomotion was tested according to a modified version of the methods of Riffee and Wilcox, Psychopharmacology, 1985, 85:97-101. Mice (25-30 g) were transported from the colony room to the experimental room and held there for the duration of the experiment. […] Control groups, assessed simultaneously with drug-treated groups, received vehicle at equal volumes (10 ml/kg). […] Activity was monitored for 30 minutes with lights on using Omnitech Digiscan® (Columbus, Ohio) infrared monitors. Each infrared beam break was counted by the automated system and totaled at 10 minute intervals. […]
FIG. 3 is a schematic representation of the effect of (S)-2(Benzylamino-methyl)-2,3,8,9-tetrahydro-7H-1,4-dioxino[2,3-e]indol-8-one (agent) to reverse d-amphetamine induced hyperactivity in mice. The data are expressed as a percentage of the activity level observed in mice treated with d-amphetamine alone and are presented as means±SEM.

## O=C1Cc2c(ccc3c2O[C@@H](CNCc2ccccc2)CO3)N1 [(S)-2-(benzylamino-methyl)-2,3,8,9-tetrahydro-7H-1,4-dioxino[2,3-e]indol-8-one]
[1]; Rattus norvegicus, 1 h, agent s.c., 60 minutes after drug treatment (time point of greatest reversal), read-out: ED50 (dose producing 50% reduction in maximal response), reversal of haloperidol-induced catalepsy
  ED50: 0.08 mg/kg
[1]; agent 0.003 to 3 mg/kg s.c., 60 minutes after drug treatment
  time spent in catalepsy position: dose-dependent decrease
[1]; agent s.c. 60 min later, 60 minutes after drug treatment
  MED (minimal effective dose) for reversing haloperidol-induced catalepsy: 0.3 mg/kg
Catalepsy in rats
  ability to induce catalepsy: lack of ability of the agent to induce significant catalepsy
[2]; Mus musculus, agent s.c., horizontal activity counts 10-20 min, read-out: ED50 (dose producing 50% reduction in activity), d-amphetamine-induced hyperactivity
  ED50: 0.002 mg/kg
[2]; agent 0.0001 to 1 mg/kg s.c.
  d-amphetamine-induced hyperactivity (horizontal activity counts, % of d-amphetamine alone): dose-dependent decreased
